Measurements published in patent publication US20020195406A1, “Compositions and methods for disinfecting small diameter water lines” (priority 2001, published 2002).
Several values for one entry are separate records, joined by “and”; a condition that tells them apart may be missing. Equal entries are not always repeated.

Tests used:
biofilms = conditions: household bleach 5.25%, glutaraldehyde 3%, isopropanol 15.3%, cited from earlier work; for effluents from biofilms after contact: 15-hours contact; for recolonization returned to pretreatment levels by day: after 15-hours contact
[1] = tested on: microorganisms in small diameter water lines; conditions: after 24 hours of treatment; approximately 10%; cited from earlier work
[2] = tested on: dental unit biofilm bacteria; conditions: 13% (130,000 ppm), used periodically in one facility; cited from earlier work
[3] = tested on: bacteria in biofilms of dental water unit lines; assay: Microbial counts for 6 dental water units after one 30-min treatment with 1000 ppm ClO2 (Example 1); assay type: cell-based; conditions: for Microbial count of unit effluent water: individual units 31-40; for Microbial count of unit effluent water, mean: mean of 6 units
Method: Treatment: This example involved six dental water units, in a preliminary range finding study. The study was run during a particularly warm period of weather, where concomitant warmer municipal water temperatures would be expected to exacerbate biofilm contamination problems. The units were all of the same model, and were fitted with detachable water reservoirs. 100 ml of tap water was placed in each reservoir, and water was then run through the ultrasonic outlets for 30 seconds. Thereafter 30 ml of water was collected aseptically from each outlet. The reservoirs were then disconnected, and water run out of all outlets until the units ran dry. 100 ml of a 1000 ppm treatment solution, prepared as follows, was then placed in each reservoir:
10 ml of a 5.0% sodium chlorite solution was pipetted into a 100-ml volumetric flask already containing 75 ml of deionized water. To that was added 2.0 ml of 13% sodium hypochlorite solution (bleach). Immediately thereafter, 10.0 ml of a 1.9% citric acid solution was added, brought to volume with deionized water, sealed and the flask was agitated to mix the contents.
All outlets were then run until the solution came through each one. The solutions were then left in each unit for 30 minutes, after which the reservoirs were disconnected and the treatment solution was run out until all three outlets from each unit were dry. The reservoirs were then rinsed and filled with water (about 1 liter), and the water then run out of all three outlets until the reservoirs were empty.
[…] Samples were also collected from the tap from which water to operate the units was taken.
Microbial Culture: The water samples were vortex mixed, and then diluted in phosphate-buffered saline in two 10-fold dilutions. The samples were then plated onto yeast extract agar by means of a spiral plater. The plates were incubated at 22° C. for four days, after which they were counted.

[4] = tested on: bacteria in biofilms of dental water unit lines; assay: Microbial counts for a dental water unit after three staggered 30-min treatments with 500 ppm ClO2 (Example 2); assay type: cell-based
Excerpt: The level, however, is probably typical of the tap water in the UK, where this study was run. In this study three staggered 30-minute exposures to 500 ppm ClO2 solution were made, and counts then made from 1 to 4 days after each treatment. The techniques of treatment and sampling were similar to those described in Example 1. The ClO2 solution was similarly prepared, using half the level of sodium chlorite and hypochlorite initially, after acidification with citric acid.

[5] = tested on: bacteria in biofilms of dental water unit lines; assay: Microbial counts for a dental water unit after three consecutive-day 30-min treatments with 500 ppm ClO2 (Example 3); assay type: cell-based
Method: The level, however, is probably typical of the tap water in the UK, where this study was run. In this study the unit was treated as in Example 2, but on three consecutive days. Samples were taken of both the incoming supply water and from the unit before treatment on each day, with a 500 ppm ClO2 solution for 30-minutes, and also 1, 2 and 5 days after the last treatment. This schedule is represented in the chart below, along with the data derived from each water sample.

[6] = tested on: bacteria in biofilms of dental water unit lines; assay: Microbial counts from a dental water unit supplied with sterile water after a single 1000 ppm ClO2 30-minute exposure (Example 4); assay type: cell-based
Method: Treatment: This study was run on a dental water unit that had been supplied with sterile water for a week, after its normal operation with tap water. The intent of the study was to determine if a unit, once disinfected, and not then re-exposed to tap water with excess levels of micro-organisms, would show the rebound in organism levels that has been observed in the previous examples. The unit was exposed to a single 1000 ppm solution of ClO2, prepared and applied for 30 minutes, as fully described in Example 1. Sampling and counting techniques were also the same.

[7] = tested on: bacteria in biofilms of dental water unit lines; assay: Microbial counts for a dental water unit after three staggered 30-min treatments with 500 ppm ClO2 (Example 2); assay type: cell-based; remark: listed apart in the source
biofilm bacteria = conditions: free chlorine; cited from earlier work
[8] = half reaction as printed; cited from earlier work

O=CCCCC=O [glutaraldehyde]
effluents from biofilms after contact (biofilms): free of recoverable bacteria
recolonization returned to pretreatment levels by day (biofilms): 3 days

povidone-iodine
numbers of bacteria after treatment [1]: greatly reduced
regrowth of bacteria after treatment [1]: quickly begin to rise after eight days

OCl [hypochlorite]
effect on bacterial counts [2]: dramatic reductions in bacterial counts, but these rise again rather quickly

chlorine dioxide [ClO2]
reduction in the effluent's cfu/ml ([3]; after day two vs T=0, 1000 ppm, 30 min): 27 fold
difference from T=0 ([3]; after day two, 1000 ppm, 30 min): 1.43 logs
DWU effluent count relative to tap water ([3]; day 3 after treatment, 1000 ppm, 30 min): approximated that of the tap water
Microbial count of unit effluent water ([3]; 1 day after 30-min treatment with 1000 ppm ClO2): 1.90 log cfu/ml and 2.08 log cfu/ml and 2.45 log cfu/ml and 3.85 log cfu/ml and 2.30 log cfu/ml and 1.30 log cfu/ml
Microbial count of unit effluent water ([3]; 2 days after 30-min treatment with 1000 ppm ClO2): 2.78 log cfu/ml and 3.56 log cfu/ml and 3.86 log cfu/ml and 3.32 log cfu/ml and 2.51 log cfu/ml and 3.03 log cfu/ml
Microbial count of unit effluent water ([3]; 3 days after 30-min treatment with 1000 ppm ClO2): 3.94 log cfu/ml and 3.85 log cfu/ml and 5.25 log cfu/ml and 4.34 log cfu/ml and 2.62 log cfu/ml and 2.81 log cfu/ml
Microbial count of unit effluent water, mean ([3]; 1 day after 30-min 1000 ppm ClO2): 2.31 log cfu/ml
Microbial count of unit effluent water, mean ([3]; 2 days after 30-min 1000 ppm ClO2): 3.18 log cfu/ml
Microbial count of unit effluent water, mean ([3]; 3 days after 30-min 1000 ppm ClO2): 3.80 log cfu/ml
drop in bacterial colonies per ml of effluent water ([3]; one day after treatment vs T=0, 1000 ppm, 30 min): 2.3 log
bacterial colonies per ml of effluent water ([3]; one day after treatment, numerical value of mean, 1000 ppm, 30 min): 204 colonies per ml
reduction in organisms in the effluent water ([4]; after the first 500 ppm treatment): 83 fold
reduction of unit's count ([4]; after the first 500 ppm treatment (day 0 to day 1)): 1.92 logs
Unit Microbial Count ([4]; day 1, one day after first 30-min 500 ppm treatment (day 0)): 2.66 log cfu/ml
Unit Microbial Count ([4]; day 4, four days after first 500 ppm treatment): 4.66 log cfu/ml
Unit Microbial Count ([4]; day 8, one day after second 500 ppm treatment): 3.04 log cfu/ml
Unit Microbial Count ([4]; day 11, four days after second 500 ppm treatment, before third): 4.18 log cfu/ml
Unit Microbial Count ([4]; day 12, one day after third 500 ppm treatment): 1.60 log cfu/ml
Unit Microbial Count ([4]; day 15, four days after third 500 ppm treatment): 3.15 log cfu/ml
unit count below that of the incoming water ([5]; Day 4): 0.9 logs
unit count below that of the incoming water ([5]; Day 5): 0.8 logs
count in the issuing water higher than the supply water ([5]; Day 8, five days after the last treatment): 1.0 log
Unit Count ([5]; day 2, 1 day after first 30-min 500 ppm treatment): 2.7 log cfu/ml
Unit Count ([5]; day 3, 1 day after second consecutive 500 ppm treatment): 1.8 log cfu/ml
Unit Count ([5]; day 4, 1 day after third consecutive 500 ppm treatment): 2.8 log cfu/ml
Unit Count ([5]; day 5, 2 days after last 500 ppm treatment): 2.3 log cfu/ml
Unit Count ([5]; day 8, 5 days after last 500 ppm treatment): 3.9 log cfu/ml
unit count below that of the incoming water ([5]; one day after the first 500 ppm treatment (day 2)): 1.2 logs
Unit Count ([6]; 4th day post-application): 0 cfu/ml
Microbial Counts, Unit Water ([6]; day 8, 1 day after single 1000 ppm 30-min exposure, sterile water supply, unit active): 2.26 log cfu/ml
Microbial Counts, Unit Water ([6]; day 9, 2 days after exposure, sterile water supply, active): 1.3 log cfu/ml
Microbial Counts, Unit Water ([6]; day 10, 3 days after exposure, sterile water supply, active): 1.3 log cfu/ml
Microbial Counts, Unit Water ([6]; day 11, 4 days after exposure, sterile water supply, active): 0 log cfu/ml
Microbial Counts, Unit Water ([6]; day 14, 7 days after exposure, after passive weekend (days 12-13)): 3.88 log cfu/ml
Unit Count ([6]; days 2-3 post-application, numerical value of 1.3 logs): 20 organisms per ml
Unit Count ([6]; one day after treatment, numerical value): 182 cfu/ml
further drop ([6]; subsequent 2 days after day 8): 10 fold
population drop ([6]; within a day of the ClO2 treatment): about 40,500 microbial organism per ml of water
drop of unit count ([6]; within a day of the ClO2 treatment, from pre-treatment average of 4.61 logs): 2.35 log cfu/ml
Unit Microbial Count ([7]; day 7, seven days after first 500 ppm treatment, before second): 5.83 log cfu/ml
Unit Microbial Count ([7]; day 18, 7 days after third 500 ppm treatment): 4.08 log cfu/ml

OCl [hypochlorous acid]
resistance of biofilm bacteria relative to unattached cells (biofilm bacteria): 150-3000 times
oxidation potential [8]: 1.49 V

CC(C)O [isopropanol]
effluents from biofilms after contact (biofilms): free of recoverable bacteria
recolonization returned to pretreatment levels by day (biofilms): 15 days
